Data from US4288609A, “Quaternary ammonium derivatives of adamantane with antimicrobic activity” (priority 1976, dated 1981).

Assays:
[1] = system: Klens. Pneum. ISM; experiment: M.I.C. in vitro, gram- Klens. Pneum. (Table 1); format: cell-based
Description: (§1) The method for evaluating the activity in vitro against bacteria, fungi and protozoa consists in introducing calculated quantities of the substance, the activity of which it is desired to test, into culture media already inoculated with a predetermined number of test germs.
(§2) After 24 or 48 hours of incubation at 30° or 37° C., according to the micro-organism being tested, it is possible to evaluate the growth of the same in the culture broth; in this manner the minimum concentration (M.I.C.) which inhibits the growth of the micro-organisms in vitro is determined.
(§3) In table 1 there are recorded the M.I.C. values in γ/ml of the products subject of the present invention, against certain gram+ and gram- bacterial strains, some of which are pathogenic towards human beings.

[2] = system: Trich. Foetus ISM 66/23; experiment: MIC protozoa, Trichomonas foetus (Table 2); format: cell-based; conditions: +10% serum (head); Kupferberg Trichomonas broth with 5% of horse serum
Description: as §1, §2
(§4) Inoculation with Trichomonas vaginalis and Trichomonas foetus, obtained from cultures transplanted every other day to make them lively, was effected in a ratio of 3.5% of the volume of medium used.
(§5) For the fungi Sabourand broth was used as a culture medium, whilst for the protozoa Kupferberg Trichomonas broth with 5% of horse serum was used.

[3] = system: Diplococcus Pneum. ISM; experiment: M.I.C. in vitro, gram+ Diplococcus Pneum. (Table 1); format: cell-based
Description: as §1, §2, §3

[4] = system: Staph.Aureus Tour; experiment: M.I.C. in vitro, gram+ Staph. Aureus (Table 1); format: cell-based, Staphylococcus Aureus
Description: as §1, §2, §3

[5] = system: Trich. Vaginalis ISM 66/22; experiment: MIC protozoa, Trichomonas vaginalis (Table 2); format: cell-based; conditions: +10% serum (head); Kupferberg Trichomonas broth with 5% of horse serum
Description: as §1, §2, §4, §5

[6] = system: Candida Pseudotrop. ATCC 2512; experiment: MIC yeasts, Candida pseudotropicalis (Table 2); format: cell-based; conditions: Sabourand broth
Description: as §1, §2
(§6) Inoculation with Candida albicans or Candida pseudotropicalis was made by diluting cultures grown for 24 h at 30° C. (cellular density inoculated 10^3 /ml).
as §5

[7] = system: Esch. Coli. SKF 12140; experiment: M.I.C. in vitro, gram- Esch. Coli (Table 1); format: cell-based, Escherichia Coli
Description: as §1, §2, §3

[8] = system: Trych. Mentagr. 1st.Pastuer; experiment: MIC mildews, Trichophyton mentagrophytes (Table 2); format: cell-based; conditions: Sabourand broth
Description: as §1, §2
(§7) Inoculation with Trichophyton mentagrophytes and Microsporum canis was effected in a ratio of 1% of the volume of medium used.
as §5

[9] = system: Proteus Vulc. ATCC 881; experiment: M.I.C. in vitro, gram- Proteus Vulc. (Table 1); format: cell-based
Description: as §1, §2, §3

[10] = system: mice; experiment: Acute oral toxicity in mice (Table 4); conditions: oral, mice, 14 days
Description: The substances were administered orally to groups of 10 female mice CF1 of average weight of about 20 grams, in aqueous solution and in such way that the total volume administered would be in each case 1 ml/100 g of weight.

[11] = system: Nicrosporum Canis ATCC 11621; experiment: MIC mildews, Microsporum canis (Table 2); format: cell-based; conditions: Sabourand broth
Description: as §1, §2, §7, §5

[12] = system: Streptococ. Henclyt. 0203; experiment: M.I.C. in vitro, gram+ Streptococ. Henclyt. (Table 1); format: cell-based
Description: as §1, §2, §3

[13] = system: Pseudom.Aer. ATCC 1014; experiment: M.I.C. in vitro, gram- Pseudom. Aer. (Table 1); format: cell-based, Pseudomonas Aeruginosa
Description: as §1, §2, §3

[14] = system: Candida Albic. SKF 2270; experiment: MIC yeasts, Candida albicans (Table 2); format: cell-based; conditions: Sabourand broth
Description: as §1, §2, §6, §5

## CCCCCCCCCC[N+](C)(C)CCOC(=O)C12CC3CC(CC(C3)C1)C2 (single isomer, unassigned) [Example 2, n-Decyl-dimethyl-(1-adamantane-carboxy)-ethyl-ammonium chloride]
[1]; +10% serum
  M.I.C.: 100 µg/mL
[1]; without serum
  M.I.C.: 20 µg/mL
[2]
  MIC: 10 µg/mL
[3]; +10% serum
  M.I.C.: 10 µg/mL
[3]; without serum
  M.I.C.: 2 µg/mL
[4]; +10% serum
  M.I.C.: 5 µg/mL
[4]; without serum
  M.I.C.: 0.2 µg/mL
[5]
  MIC: 20 µg/mL
[6]; +10% serum
  MIC: 50 µg/mL
[6]; without serum
  MIC: 0.5 µg/mL
[7]; +10% serum
  M.I.C.: 100 µg/mL
[7]; without serum
  M.I.C.: 10 µg/mL
[8]; +10% serum
  MIC: 20 µg/mL
[8]; without serum
  MIC: 0.5 µg/mL
[9]; +10% serum
  M.I.C.: 100 µg/mL
[9]; without serum
  M.I.C.: 20 µg/mL
[10]
  LD50: 1020 mg/kg
[11]; +10% serum
  MIC: 20 µg/mL
[11]; without serum
  MIC: 0.5 µg/mL
[12]; +10% serum
  M.I.C.: 1 µg/mL
[12]; without serum
  M.I.C.: 0.2 µg/mL
[13]; +10% serum
  M.I.C.: 100 µg/mL
[13]; without serum
  M.I.C.: 50 µg/mL
[14]; +10% serum
  MIC: 50 µg/mL
[14]; without serum
  MIC: 5 µg/mL

## CCCCCCCCCC[N+](CC)(CC)CCNC(=O)C12CC3CC(CC(C3)C1)C2 [Example 10, n-Decyl-diethyl-(1-adamantane-carbonylamido)-ethyl-ammonium chloride]
[1]; +10% serum
  M.I.C.: 100 µg/mL
[1]; without serum
  M.I.C.: 10 µg/mL
[2]
  MIC: 5 µg/mL
[3]; +10% serum
  M.I.C.: 10 µg/mL
[3]; without serum
  M.I.C.: 2 µg/mL
[4]; +10% serum
  M.I.C.: 10 µg/mL
[4]; without serum
  M.I.C.: 0.2 µg/mL
[5]
  MIC: 10 µg/mL
[6]; +10% serum
  MIC: 50 µg/mL
[6]; without serum
  MIC: 2 µg/mL
[7]; +10% serum
  M.I.C.: 100 µg/mL
[7]; without serum
  M.I.C.: 10 µg/mL
[8]; +10% serum
  MIC: 50 µg/mL
[8]; without serum
  MIC: 0.5 µg/mL
[9]; +10% serum
  M.I.C.: 100 µg/mL
[9]; without serum
  M.I.C.: 10 µg/mL
[10]; 20160 min
  LD50: 1050 mg/kg
[11]; +10% serum
  MIC: 50 µg/mL
[11]; without serum
  MIC: 0.5 µg/mL
[12]; +10% serum
  M.I.C.: 5 µg/mL
[12]; without serum
  M.I.C.: 0.5 µg/mL
[13]; +10% serum
  M.I.C.: > 100 µg/mL
[13]; without serum
  M.I.C.: 50 µg/mL
[14]; +10% serum
  MIC: 50 µg/mL
[14]; without serum
  MIC: 0.5 µg/mL
